This assay has as its system Sprague-Dawley rats. Put plainly: Chronic constriction injury model of neuropathic pain. The format is in vivo, rat. Particulars: 100 μmol/kg p.o., 1 hour after dosing. The text has this: Adult male Sprague-Dawley rats (250-300 g body weight, Charles River Laboratories, Portage, Mich.) were used. Animal handling and experimental protocols were approved by the Institutional Animal Care and Use Committee (IACUC) at Abbott Laboratories. For all surgical procedures, animals were maintained under isoflurane anesthesia (4-5% to induce, 1-3% to maintain), and the incision sites were sterilized using a 10% povidone-iodine solution prior to and after surgeries.
A model of chronic constriction injury-induced (CCI) neuropathic pain was produced in rats by following the method of Bennett and Xie (Pain, 1988, 33:87). Following sterilization and anesthetic procedures, a 1.5 cm incision was made dorsal to the pelvis, and the biceps femoris and gluteous superficialis (right side) were separated. The right common sciatic nerve was exposed/isolated, and loosely ligated by 4 ligatures of chromic gut (5-0) with <1 mm spacing using hemostats and forceps. […]
Tactile allodynia was measured using calibrated von Frey filaments (Stoelting, Wood Dale, Ill.) as described in Chaplan, S. R., F. W. Bach, J. M. Pogrel, J. M. Chung and T. L. Yaksh, Quantitative assessment of tactile allodynia in the rat paw, J. Neurosci. […]

For `O=C(Nc1cccc2[nH]ncc12)N[C@H]1CC[C@H](c2ccccc2)C1` [Example 14, 1-(1H-indazol-4-yl)-3-[(1S,3S)-3-phenylcyclopentyl]urea], the “% effect” value was 53%. As for `O=C(Nc1cccc2[nH]ncc12)N[C@H]1CC[C@@H](c2ccccc2)C1` [Example 28, 1-(1H-indazol-4-yl)-3-[(1S,3R)-3-phenylcyclopentyl]urea], the figure is 54%.
